# Assays:
# FAAH [1] = molecular target: T1, FAAH (Mus musculus (Mouse), UniProt O08914); assay: Mouse brain proteomes from inhibitor treated mice (oral gavage, sacrificed 4 h after administration); assay type: in vivo; settings: 5 mg/kg oral gavage
# Method: (§1) Preparation of Mouse Brain Proteomes from Inhibitor Treated Mice.
# (§2) Inhibitors were administered to wild-type C57B1/6J by oral gavage in a vehicle of polyethylene glycol. Each animal was sacrificed 4 h following administration and brain proteomes were prepared and analyzed according to previously established methods (See Niphakis, M. J., et al. (2011) ACS Chem. Neurosci. and Long, J. Z., et al. Nat. Chem. Biol. 5:37-44).
# MAGL [2] = molecular target: T2, MAGL (Mus musculus (Mouse), UniProt O35678); assay: as above; assay type: in vivo; settings: 5 mg/kg oral gavage
# Method: as §1, §2
# FAAH [3] = molecular target: T1, FAAH; assay: In vitro competitive activity-based protein profiling, mouse proteomes (brain membrane fraction or cell lysates); assay type: biochemical; settings: mouse proteome, read-out: FAAH % inh. 1 μM (mouse)
# In short: (§3)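 Activity of MAGL and FAAH was quantified from fluorescent gel band intensities. Beforehand, inhibitors at several concentrations competed against subsequent probe labelling (FP-Rh, JW912 or HT-01) in species-matched proteomes, each step 30 min at 37° C.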
# MAGL [4] = molecular target: T2, MAGL; assay: as above; assay type: biochemical; settings: mouse proteome, read-out: MAGL % inh. 1 μM (mouse)
# In short: as §3
# MAGL [5] = molecular target: MAGL (Homo sapiens (Human), UniProt Q99685); assay: In vitro competitive activity-based protein profiling, human proteomes (prefrontal cortex or PC3 cell membrane fractions); assay type: biochemical; settings: human proteome; for inhibition at 1 µM: read-out: MAGL % inh. 1 μM (human)
# In short: as §3
# FAAH [6] = molecular target: FAAH (Homo sapiens (Human), UniProt O00519); assay: as above; assay type: biochemical; settings: human proteome; for inhibition at 1 µM: read-out: FAAH % inh. 1 μM (human)
# In short: as §3
# Chain of FAAH (Homo sapiens (Human), UniProt O00519) (O00519 whole entry): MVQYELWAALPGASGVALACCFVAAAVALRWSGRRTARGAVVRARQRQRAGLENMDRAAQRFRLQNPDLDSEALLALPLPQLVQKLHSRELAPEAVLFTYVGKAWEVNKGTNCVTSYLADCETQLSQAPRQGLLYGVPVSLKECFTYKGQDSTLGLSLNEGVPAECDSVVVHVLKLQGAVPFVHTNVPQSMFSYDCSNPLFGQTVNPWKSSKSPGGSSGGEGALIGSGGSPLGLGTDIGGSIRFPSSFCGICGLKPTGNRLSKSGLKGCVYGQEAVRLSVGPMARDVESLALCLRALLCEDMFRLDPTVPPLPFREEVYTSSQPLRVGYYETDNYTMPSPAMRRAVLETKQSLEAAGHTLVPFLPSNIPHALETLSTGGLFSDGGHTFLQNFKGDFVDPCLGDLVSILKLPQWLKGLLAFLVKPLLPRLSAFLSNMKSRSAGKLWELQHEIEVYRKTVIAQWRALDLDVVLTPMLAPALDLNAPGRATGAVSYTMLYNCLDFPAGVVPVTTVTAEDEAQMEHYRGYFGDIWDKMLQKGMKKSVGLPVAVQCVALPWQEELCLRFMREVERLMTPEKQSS
# Chain of MAGL (Homo sapiens (Human), UniProt Q99685) (Q99685 whole entry): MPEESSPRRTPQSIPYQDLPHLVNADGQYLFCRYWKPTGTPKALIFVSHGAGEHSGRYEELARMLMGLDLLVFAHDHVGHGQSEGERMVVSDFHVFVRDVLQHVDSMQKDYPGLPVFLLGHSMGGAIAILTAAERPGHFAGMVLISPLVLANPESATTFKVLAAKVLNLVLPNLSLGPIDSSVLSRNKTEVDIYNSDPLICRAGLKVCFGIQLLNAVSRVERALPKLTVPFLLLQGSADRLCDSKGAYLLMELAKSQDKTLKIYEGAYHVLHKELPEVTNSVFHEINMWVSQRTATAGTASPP
# T2 sequence (O35678 whole entry): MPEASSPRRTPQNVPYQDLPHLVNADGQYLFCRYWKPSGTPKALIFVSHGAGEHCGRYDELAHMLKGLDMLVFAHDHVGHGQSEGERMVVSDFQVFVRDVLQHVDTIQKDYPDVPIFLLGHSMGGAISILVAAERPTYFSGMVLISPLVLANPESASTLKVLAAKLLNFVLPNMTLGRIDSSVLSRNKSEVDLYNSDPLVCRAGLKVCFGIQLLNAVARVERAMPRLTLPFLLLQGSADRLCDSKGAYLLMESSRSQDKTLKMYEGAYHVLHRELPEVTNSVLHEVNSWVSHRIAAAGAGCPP
# T1 sequence (O08914 whole entry): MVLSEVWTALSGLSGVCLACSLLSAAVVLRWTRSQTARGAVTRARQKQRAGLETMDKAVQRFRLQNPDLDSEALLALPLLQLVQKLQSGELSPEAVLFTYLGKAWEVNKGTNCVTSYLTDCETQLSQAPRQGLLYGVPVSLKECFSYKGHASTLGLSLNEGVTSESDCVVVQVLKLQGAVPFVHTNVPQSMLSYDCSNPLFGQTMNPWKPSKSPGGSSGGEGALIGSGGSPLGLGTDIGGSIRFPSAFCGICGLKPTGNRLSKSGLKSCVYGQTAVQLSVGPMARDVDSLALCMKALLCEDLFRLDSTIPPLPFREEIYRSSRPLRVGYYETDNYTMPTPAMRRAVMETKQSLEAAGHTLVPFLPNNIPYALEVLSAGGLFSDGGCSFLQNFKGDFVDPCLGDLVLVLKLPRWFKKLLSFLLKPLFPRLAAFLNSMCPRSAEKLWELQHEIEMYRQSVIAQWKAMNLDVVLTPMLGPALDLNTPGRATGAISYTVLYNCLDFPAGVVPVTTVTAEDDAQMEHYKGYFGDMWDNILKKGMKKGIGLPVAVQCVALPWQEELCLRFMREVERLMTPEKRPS
SMILES,FAAH % inh. 5 mg/kg (mouse) (FAAH [1]),MAGL % inh. 5 mg/kg (mouse) (MAGL [2]),inhibition at 1 µM (FAAH [3]) [%],inhibition at 1 µM (MAGL [4]) [%],inhibition at 1 µM (MAGL [5]) [%],inhibition at 1 µM (FAAH [6]) [%],IC50 (MAGL [5]) [µM],IC50 (FAAH [6]) [µM]
"CS(=O)(=O)Nc1ccn(C(=O)N2CCC(Oc3ccc(C(F)(F)F)cc3-c3nnco3)CC2)n1 [Example 96, N-(1-(4-(2-(1,3,4-Oxadiazol-2-yl)-4-(trifluoromethyl)phenoxy)piperidine-1-carbonyl)-1H-pyrazol-3-yl)methanesulfonamide]",D (% inhibition is greater than or equal to 0% and less than 25%),D (% inhibition is greater than or equal to 0% and less than 25%),0 to 25,> 75,> 75,0 to 25,,
"CC(=O)Nc1ccn(C(=O)N2CC3CN(Cc4cc(N5CCCC5)cc(C(F)(F)F)c4)CC3C2)n1 (centres unmarked) [Example 168, N-(1-(5-(3-(Pyrrolidin-1-yl)-5-(trifluoromethyl)benzyl)octahydropyrrolo[3,4-c]pyrrole-2-carbonyl)-1H-pyrazol-3-yl)acetamide]",A (% inhibition is greater than or equal to 75%),A (% inhibition is greater than or equal to 75%),> 75,> 75,> 75,50 to 75,,
"CS(=O)(=O)Nc1ccn(C(=O)N2CCN(Cc3ccc(Cl)nc3N3CCCC3)CC2)n1 [Example 90, N-(1-(4-((6-Chloro-2-(pyrrolidin-1-yl)pyridin-3-yl)methyl)piperazine-1-carbonyl)-1H-pyrazol-3-yl)methanesulfonamide]",D (% inhibition is greater than or equal to 0% and less than 25%),C (% inhibition is greater than or equal to 25% and less than 50%),0 to 25,> 75,> 75,0 to 25,,
"CC(=O)Nc1ccn(C(=O)N2CCN(Cc3ccc(C(F)(F)F)cc3NCCCC(=O)O)CC2)n1 [Example 76, 4-((2-((4-(3-Acetamido-1H-pyrazole-1-carbonyl)piperazin-1-yl)methyl)-5-(trifluoromethyl)phenyl)amino)butanoic acid]",D (% inhibition is greater than or equal to 0% and less than 25%),D (% inhibition is greater than or equal to 0% and less than 25%),0 to 25,> 75,> 75,0 to 25,,
"CS(=O)(=O)Nc1ccn(C(=O)N2CCN(Cc3ccc(Cl)c(N4CCC5(CCOCC5)C4)c3)CC2)n1 [Example 159, N-(1-(4-(4-Chloro-3-(8-oxa-2-azaspiro[4.5]decan-2-yl)benzyl)piperazine-1-carbonyl)-1H-pyrazol-3-yl)methanesulfonamide]",D (% inhibition is greater than or equal to 0% and less than 25%),D (% inhibition is greater than or equal to 0% and less than 25%),0 to 25,> 75,> 75,0 to 25,,
"CS(=O)(=O)Nc1ccn(C(=O)N2CCC(Oc3ccc(C(F)(F)F)cc3-n3cccn3)CC2)n1 [Example 98, N-(1-(4-(2-(1H-Pyrazol-1-yl)-4-(trifluoromethyl)phenoxy)piperidine-1-carbonyl)-1H-pyrazol-3-yl)methanesulfonamide]",D (% inhibition is greater than or equal to 0% and less than 25%),D (% inhibition is greater than or equal to 0% and less than 25%),0 to 25,> 75,> 75,0 to 25,,
"CC(C)OC1CCN(c2cc(CN3CCN(C(=O)n4ccc(NS(C)(=O)=O)n4)C[C@@H]3C)ccc2Cl)CC1 [Example 32, (S)—N-(1-(4-(4-chloro-3-(4-isopropoxypiperidin-1-yl)benzyl)-3-methylpiperazine-1-carbonyl)-1H-pyrazol-3-yl)methanesulfonamide]",D (% inhibition is greater than or equal to 0% and less than 25%),A (% inhibition is greater than or equal to 75%),0 to 25,> 75,> 75,0 to 25,,
"CC(=O)Nc1ccn(C(=O)N2CC[C@H](Oc3ccc(C(N)=O)c(C(F)(F)F)c3)[C@H](F)C2)n1 [Example 118, 4-(((3R,4S)-1-(3-Acetamido-1H-pyrazole-1-carbonyl)-3-fluoropiperidin-4-yl)oxy)-2-(trifluoromethyl)benzamide]",D (% inhibition is greater than or equal to 0% and less than 25%),D (% inhibition is greater than or equal to 0% and less than 25%),0 to 25,> 75,> 75,0 to 25,,
"CS(=O)(=O)Nc1ccn(C(=O)N2CCN(Cc3ccc(Cl)c(N4CCCC45CC5)c3)CC2)n1 [Example 12, N-(1-(4-(4-chloro-3-(4-azaspiro[2.4]heptan-4-yl)benzyl)piperazine-1-carbonyl)-1H-pyrazol-3-yl)methanesulfonamide]",D (% inhibition is greater than or equal to 0% and less than 25%),D (% inhibition is greater than or equal to 0% and less than 25%),0 to 25,> 75,> 75,0 to 25,,
"CC(=O)Nc1ccn(C(=O)N2CCN(Cc3ccc(-c4ccccc4)cc3C)CC2)n1 [Example 131, N-(1-(4-((3-Methyl-[1,1′-biphenyl]-4-yl)methyl)piperazine-1-carbonyl)-1H-pyrazol-3-yl)acetamide]",A (% inhibition is greater than or equal to 75%),A (% inhibition is greater than or equal to 75%),> 75,> 75,> 75,> 75,< 0.1,1 to 10
"CC1CN(C(=O)n2ccc(NS(C)(=O)=O)n2)CCN1Cc1ccc(C(F)(F)F)c(N2CCC(F)CC2)c1 (centres unmarked) [Example 141, N-(1-(4-(3-(4-Fluoropiperidin-1-yl)-4-(trifluoromethyl)benzyl)-3-methylpiperazine-1-carbonyl)-1H-pyrazol-3-yl)methanesulfonamide]",D (% inhibition is greater than or equal to 0% and less than 25%),A (% inhibition is greater than or equal to 75%),0 to 25,> 75,> 75,0 to 25,,
"C[C@H]1CN(Cc2ccc(Cl)c(N3CC4COCC4C3)c2)CCN1C(=O)n1ccc(NS(C)(=O)=O)n1 (stereo partly drawn) [Example 135, N-(1-((2S)-4-(4-Chloro-3-(tetrahydro-1H-furo[3,4-c]pyrrol-5(3H)-yl)benzyl)-2-methylpiperazine-1-carbonyl)-1H-pyrazol-3-yl)methanesulfonamide]",D (% inhibition is greater than or equal to 0% and less than 25%),D (% inhibition is greater than or equal to 0% and less than 25%),0 to 25,> 75,> 75,0 to 25,,
"CS(=O)(=O)Nc1ccn(C(=O)N2CCC(Oc3ccc(C(F)(F)F)cc3N3CCCC3)CC2)n1 [Example 80, N-(1-(4-(2-(Pyrrolidin-1-yl)-4-(trifluoromethyl)phenoxy)piperidine-1-carbonyl)-1H-pyrazol-3-yl)methanesulfonamide]",D (% inhibition is greater than or equal to 0% and less than 25%),A (% inhibition is greater than or equal to 75%),0 to 25,> 75,> 75,0 to 25,,
"CS(=O)(=O)Nc1ccn(C(=O)N2CCN(Cc3ccc(Cl)c(N4C[C@H]5C[C@@H]4CO5)c3)CC2)n1 [Example 157, N-(1-(4-(3-((1R,4R)-2-Oxa-5-azabicyclo[2.2.1]heptan-5-yl)-4-chlorobenzyl)piperazine-1-carbonyl)-1H-pyrazol-3-yl)methanesulfonamide]",D (% inhibition is greater than or equal to 0% and less than 25%),D (% inhibition is greater than or equal to 0% and less than 25%),0 to 25,> 75,> 75,0 to 25,,
"CN(Cc1ccc(C(F)(F)F)cc1N1CCOCC1)C1(C)CCN(C(=O)n2ccc(NS(C)(=O)=O)n2)CC1 [Example 94, N-(1-(4-Methyl-4-(methyl(2-morpholino-4-(trifluoromethyl)benzyl)amino)piperidine-1-carbonyl)-1H-pyrazol-3-yl)methanesulfonamide]",D (% inhibition is greater than or equal to 0% and less than 25%),A (% inhibition is greater than or equal to 75%),0 to 25,> 75,> 75,0 to 25,,

# Reference: patent US11149037B2, “Pyrazole MAGL inhibitors” (H. Lundbeck A/S, priority 2017, dated 2021)
